Source: US20220009920A1 (GB005, Inc., priority 2020, published 2022)

Tests used:
Assay in all cases: Large panel kinase profiling
Assay type in all cases: biochemical
Conditions in all cases: 1 μM test article, 1 mM ATP
DYRK3 = biological target: T1, DYRK3 (Homo sapiens, UniProt O43781)
T1 construct: AssayQuant Technologies, Inc. (service laboratory)
T1 sequence (O43781 1-588): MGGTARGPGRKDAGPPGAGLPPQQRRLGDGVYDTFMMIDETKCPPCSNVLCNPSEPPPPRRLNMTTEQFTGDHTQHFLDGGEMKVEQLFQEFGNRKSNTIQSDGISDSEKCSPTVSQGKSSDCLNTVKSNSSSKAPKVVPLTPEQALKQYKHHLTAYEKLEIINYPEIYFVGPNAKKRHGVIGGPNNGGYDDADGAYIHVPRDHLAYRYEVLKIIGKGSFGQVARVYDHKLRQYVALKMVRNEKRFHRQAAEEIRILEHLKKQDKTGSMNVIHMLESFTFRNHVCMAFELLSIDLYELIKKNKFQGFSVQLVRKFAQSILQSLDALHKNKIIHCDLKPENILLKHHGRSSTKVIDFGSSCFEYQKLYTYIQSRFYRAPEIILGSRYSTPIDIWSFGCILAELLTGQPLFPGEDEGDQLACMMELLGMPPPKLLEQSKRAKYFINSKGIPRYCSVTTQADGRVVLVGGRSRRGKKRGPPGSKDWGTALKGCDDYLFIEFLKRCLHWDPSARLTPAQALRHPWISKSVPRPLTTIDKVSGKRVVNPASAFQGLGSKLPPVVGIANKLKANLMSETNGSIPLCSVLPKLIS
How it was run: (§1)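 Profiling across the panel relied on the PhosphoSens CSox-Sensor format. A compound concentration of 1 μM and an ATP level of 1 mM were used throughout.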

FGFR4 = FGFR4 (Homo sapiens, UniProt P22455)
Sequence of FGFR4 (P22455 22-802, species assumed): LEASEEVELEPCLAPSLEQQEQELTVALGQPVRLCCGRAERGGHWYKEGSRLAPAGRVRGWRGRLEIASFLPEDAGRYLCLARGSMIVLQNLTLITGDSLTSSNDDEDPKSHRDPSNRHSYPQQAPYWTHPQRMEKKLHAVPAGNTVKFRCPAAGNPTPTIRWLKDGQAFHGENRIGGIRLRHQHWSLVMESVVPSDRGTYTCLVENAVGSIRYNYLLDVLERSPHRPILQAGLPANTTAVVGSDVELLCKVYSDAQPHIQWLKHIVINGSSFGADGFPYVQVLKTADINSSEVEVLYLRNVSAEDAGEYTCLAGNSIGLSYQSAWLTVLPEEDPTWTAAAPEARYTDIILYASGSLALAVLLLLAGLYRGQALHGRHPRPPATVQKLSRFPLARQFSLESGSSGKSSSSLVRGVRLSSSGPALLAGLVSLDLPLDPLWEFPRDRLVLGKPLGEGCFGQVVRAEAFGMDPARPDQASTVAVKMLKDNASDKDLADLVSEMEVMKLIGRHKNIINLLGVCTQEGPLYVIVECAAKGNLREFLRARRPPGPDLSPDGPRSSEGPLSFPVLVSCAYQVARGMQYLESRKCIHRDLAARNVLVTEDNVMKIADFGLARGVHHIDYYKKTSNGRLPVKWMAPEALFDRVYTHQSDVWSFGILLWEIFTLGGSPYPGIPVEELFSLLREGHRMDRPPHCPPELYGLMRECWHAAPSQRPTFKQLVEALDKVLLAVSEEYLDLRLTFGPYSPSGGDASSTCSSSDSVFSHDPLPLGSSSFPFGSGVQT
How it was run: as §1

ITK = biological target: T2, ITK (Homo sapiens, UniProt Q08881)
T2 sequence (Q08881 1-620): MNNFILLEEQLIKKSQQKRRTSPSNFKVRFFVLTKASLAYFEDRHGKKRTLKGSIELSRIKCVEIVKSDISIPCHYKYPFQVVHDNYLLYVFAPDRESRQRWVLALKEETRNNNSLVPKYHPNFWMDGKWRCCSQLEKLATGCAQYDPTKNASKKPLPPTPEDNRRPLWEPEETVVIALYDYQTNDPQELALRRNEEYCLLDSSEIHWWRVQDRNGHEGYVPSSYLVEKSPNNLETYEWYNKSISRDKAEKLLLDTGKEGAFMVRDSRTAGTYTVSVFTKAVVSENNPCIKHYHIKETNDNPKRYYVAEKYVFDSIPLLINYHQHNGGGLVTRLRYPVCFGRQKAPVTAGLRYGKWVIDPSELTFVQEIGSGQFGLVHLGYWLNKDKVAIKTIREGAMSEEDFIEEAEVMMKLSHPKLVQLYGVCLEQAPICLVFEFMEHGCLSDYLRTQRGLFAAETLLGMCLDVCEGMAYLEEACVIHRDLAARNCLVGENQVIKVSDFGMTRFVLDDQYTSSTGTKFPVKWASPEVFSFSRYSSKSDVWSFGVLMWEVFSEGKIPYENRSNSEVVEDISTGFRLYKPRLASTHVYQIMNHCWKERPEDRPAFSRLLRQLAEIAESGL
How it was run: as §1

PRKD2 = biological target: T3, PRKD2 (Homo sapiens, UniProt Q9BZL6)
T3 sequence (Q9BZL6 1-878): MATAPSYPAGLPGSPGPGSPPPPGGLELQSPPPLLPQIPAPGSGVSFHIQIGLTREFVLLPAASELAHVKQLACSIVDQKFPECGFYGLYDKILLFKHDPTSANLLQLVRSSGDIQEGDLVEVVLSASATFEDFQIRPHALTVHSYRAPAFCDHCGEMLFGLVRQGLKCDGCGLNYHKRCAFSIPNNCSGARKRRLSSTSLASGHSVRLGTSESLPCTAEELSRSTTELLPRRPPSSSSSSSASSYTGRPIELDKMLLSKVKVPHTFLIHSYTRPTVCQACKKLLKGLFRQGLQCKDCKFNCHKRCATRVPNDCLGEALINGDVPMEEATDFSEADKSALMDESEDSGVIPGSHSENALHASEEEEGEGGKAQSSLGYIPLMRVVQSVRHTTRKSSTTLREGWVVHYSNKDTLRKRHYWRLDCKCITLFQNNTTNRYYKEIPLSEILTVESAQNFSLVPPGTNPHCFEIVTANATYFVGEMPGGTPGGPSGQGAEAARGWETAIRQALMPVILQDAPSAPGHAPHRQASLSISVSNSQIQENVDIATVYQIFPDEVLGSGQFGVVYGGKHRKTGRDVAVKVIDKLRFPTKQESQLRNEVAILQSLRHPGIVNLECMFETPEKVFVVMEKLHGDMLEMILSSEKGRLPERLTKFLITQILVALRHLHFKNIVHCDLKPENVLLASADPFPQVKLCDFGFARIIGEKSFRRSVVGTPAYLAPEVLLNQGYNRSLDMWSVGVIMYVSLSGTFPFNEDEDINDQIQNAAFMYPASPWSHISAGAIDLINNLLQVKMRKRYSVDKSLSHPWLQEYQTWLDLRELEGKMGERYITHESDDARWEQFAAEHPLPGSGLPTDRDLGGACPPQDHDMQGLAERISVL
How it was run: as §1

SMILES | inhibition at 1 µM (DYRK3) | inhibition at 1 µM (FGFR4) | inhibition at 1 µM (ITK) | inhibition at 1 µM (PRKD2)
C=CC(=O)N1CCCC(c2c(F)cc(C(N)=O)c3[nH]c4c(c23)CCCCC4)C1 (single isomer, unassigned) [Compound 5-6] | 2.8% | 24.5% | 44.8% | -14.2%
C=CC(=O)N1CCC[C@@H](c2c(F)cc(C(N)=O)c3[nH]c4c(c23)CC2(CC4)CC2)C1 [Compound 6-2, (S)-5-(1-acryloylpiperidin-3-yl)-6-fluoro-1,2,4,9-tetrahydrospiro[carbazole-3,1′-cyclopropane]-8-carboxamide] | -4.9% | 4.9% | 29.2% | -32.9%
C=CC(=O)N1CCC[C@@H](c2c(F)cc(C(N)=O)c3[nH]c4c(c23)CCC4)C1 [Compound 10-2, (S)-8-(1-acryloylpiperidin-3-yl)-7-fluoro-1,2,3,4-tetrahydrocyclo-penta[b]indole-5-carboxamide] | -3.3% | 9.8% | 12.2% | -12.1%
